# Measurements reported in PubChem BioAssay AID449762 (Southern Research Specialized Biocontainment Screening …, 2010).
# Records with an inconclusive call do not appear.
# Test system: M. tuberculosis H37Rv growth inhibition, 7H9 media
# Assay: M. tuberculosis growth inhibition, HTS (AID 449762);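 note: bacterial growth assessed after seven days of incubation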
# Conditions: for IC90: measured here: IC90 growth inhibition
SMILES,IC50,IC90
CCOC(=O)C1CCN(C(=O)CSCc2nc(-c3ccc(OCC)cc3)oc2C)CC1,42.9 µM,48.1 µM
CC(C)(C)C(=O)NC(=S)NNC(=O)c1sc2ccccc2c1Cl,23.8 µM,> 100 µM
O=C(N/N=C/c1c(F)c(F)c(F)c(F)c1F)c1cccc(S(=O)(=O)N2CCOCC2)c1,–,> 100 µM
CSc1ccc(NC(=O)Nc2cccn(Cc3ccccc3)c2=O)cc1,18.5 µM,> 100 µM
CCc1ccc(CCOc2ccc(CC3SC(=O)NC3=O)cc2)nc1 (stereo not drawn),23.3 µM,> 25 µM
N#CCCN(C(=O)COC(=O)CCc1c[nH]c2ccccc12)c1ccc(F)cc1,30.7 µM,70.8 µM
CC(=O)n1cc(N(C(=O)CCl)c2ccc(Cl)cc2)c2ccccc21,1.82 µM,3.99 µM
CCN(Cc1ccncc1)Cc1nc(-c2ccc(C(=O)OC)cc2)no1,15.3 µM,41.6 µM
CCc1cc2c(=O)n(C(C)C(=O)OC3CCCCC3)cnc2s1 (stereo not drawn),17.8 µM,27.8 µM
O=C(N/N=C/c1ccc([N+](=O)[O-])o1)c1sc2ccccc2c1Cl,2.65 µM,4.6 µM
CCN1/C(=C/C=C/c2oc3ccc(-c4ccccc4)cc3[n+]2CC)Oc2ccc(-c3ccccc3)cc21,3.74 µM,4.74 µM
Cn1nc(C(F)(F)F)c2cc(NC(=O)OCC(C)(C)C)sc21,13.2 µM,40 µM
Cc1ccc(S(=O)(=O)N(C)c2ccc(OCC(=O)OCc3ccc(C#N)cc3)cc2)cc1,8.71 µM,13.8 µM
COC(=O)CCCCC1SCC(NC(=O)c2ccccc2)C1=O (stereo not drawn),8.79 µM,15.4 µM
c1ccc(-c2nnc(-c3ccccn3)nn2)nc1,3.61 µM,6.27 µM
Cc1c2c(nc3ccccc13)CCC(C)C2 (stereo not drawn),33.8 µM,61.8 µM
COc1ccc(-c2cc(-c3ccc(OC)cc3)[nH]n2)cc1,0.33 µM,1 µM
COc1ccc(-c2c(-c3cc(OC)cc(OC)c3)n(C)c3ccc(-c4ccn[nH]4)cc23)cc1,–,> 100 µM
O=[N+]([O-])c1ccc(Sc2cc[n+]([O-])c3ccccc23)c([N+](=O)[O-])c1,16.1 µM,24.3 µM
Cc1cc(NC(=O)CCl)no1,1.31 µM,3.6 µM
CC(=O)c1ccc(Sc2nnnn2-c2ccccc2)c([N+](=O)[O-])c1,4.48 µM,13.3 µM
COC(=O)c1ccc(CSc2nc(C(F)(F)F)c3c(c2C#N)CCC3)o1,47.1 µM,> 100 µM

SMILES,IC50,IC90
COCCCNC(=O)/C(C#N)=C/c1c(N2CCN(c3cccc(Cl)c3)CC2)nc2c(C)cccn2c1=O,53.9 µM,> 100 µM
CCOC(=O)c1ccc(N=c2sc(C(=O)OC)cc(=O)n2CCCN2CCOCC2)cc1,4.52 µM,12 µM
COc1ccc(OC)c(CN2CCN(C(=O)CNC(=O)c3ccc(C(C)(C)C)cc3)CC2)c1,47.4 µM,67.8 µM
CC1(C)Cc2c(cnn2-c2ccccc2)-c2c1c1ccccc1n2CC(O)CCl (stereo not drawn),88.2 µM,> 100 µM
COc1ccc(-c2cc(C3CCN(C(=O)OC(C)(C)C)CC3)[nH]n2)cc1,17 µM,30.6 µM
CCCC1CCC(C(=O)Nn2c(C)nc3ccccc3c2=O)CC1 (stereo not drawn),50.1 µM,> 100 µM
N/C(Cc1ccc([N+](=O)[O-])cc1)=N\OC(=O)c1ccc2ccccc2c1,22.5 µM,> 100 µM
CCOC(=O)c1ccc(N=C2SC(C(=O)Nc3ccc(C(=O)O)cc3)CC(=O)N2Cc2cccs2)cc1 (stereo not drawn),–,> 100 µM
CN(C)c1ccc(-c2cc(O)c3ncccc3c2)cc1,2.55 µM,4.17 µM
Cc1ccc(C(=O)C[n+]2cc(-c3ccc(C)cc3)n3c2CCCCC3)cc1,15.3 µM,19.8 µM
COc1ccc(-c2ccc(OC)c([C@H]3[C@@H]4C=CCC[C@@]4(C)C(=O)N3Cc3ccccc3)c2)cc1OC,13.1 µM,24.8 µM
COc1ccc(-c2cc3nc(CCl)[nH]c(=O)c3s2)cc1,0.88 µM,14.5 µM
Cc1ccc2c(c1)c1ncnc(N3CCc4ccccc4C3)c1n2C,81.1 µM,> 100 µM
Cc1cc(C=C2C(=O)NC(=S)NC2=O)c(C)n1C1CCCC1,10.9 µM,47.2 µM
O=c1c(Cl)nc2cc(Cl)ccc2n1CCNc1ncc(C(F)(F)F)cc1Cl,1.3 µM,3.89 µM
Cc1ccccc1CSc1nsc(N)n1,6.7 µM,19.6 µM
COC(=O)C1CC(=O)N(c2ccc(OCc3ccccc3Cl)cc2)C1 (stereo not drawn),0.52 µM,3.52 µM
O=C(NC1CCCCC1)C(c1cccs1)N(CCCN1CCOCC1)C(=O)c1ccc(-c2ccccc2)[nH]1 (stereo not drawn),40.2 µM,55.5 µM
O=C(c1ccco1)N1CCN(C(=O)C2CC(c3ccc(Cl)c(Cl)c3)=NO2)CC1 (stereo not drawn),3.88 µM,11 µM
Oc1ccc(CN2CCc3ccccc3C2)c2cccnc12,61.5 µM,> 100 µM
CN(Cc1ccc(Cl)s1)C(=O)CCl,0.66 µM,0.91 µM
Cc1onc(-c2ccccc2Cl)c1C(=O)Oc1cccc2cccnc12,2.84 µM,4.24 µM

SMILES,IC50,IC90
Nc1c(-c2ccccn2)cnn1-c1nc(-c2ccc(F)cc2)cs1,12.6 µM,> 100 µM
CCCOP(=O)(OCCC)c1c([N+](=O)[O-])cc(C(F)(F)F)cc1[N+](=O)[O-],3.88 µM,6.52 µM
Cc1nc2ccc(NC(=O)c3ccc([N+](=O)[O-])cc3[N+](=O)[O-])cc2s1,1.62 µM,16.7 µM
CCOC(=O)CSc1nc(N)c(C(=O)Nc2ccc(N(C)C)cc2)s1,1.05 µM,5.82 µM
CCCCSCCCNC(=O)c1cn(CC)c2ccc(S(=O)(=O)N3CCOCC3)cc2c1=O,23.7 µM,44.9 µM
O=C(/C=C/c1ccc(O)cc1)c1ccc(NC2=C(N3CCCCC3)C(=O)c3ccccc3C2=O)cc1,12 µM,13.6 µM
O=[N+]([O-])c1cccnc1N1CCC(c2cc(-c3cccc(C(F)(F)F)c3)n[nH]2)CC1,23.1 µM,26.1 µM
Cc1nn(-c2ccccc2)c(C)c1/C=N/NC(=O)c1cc(-c2cccc3ccccc23)n[nH]1,29 µM,> 100 µM
COc1ccc(SC[C@H](Cc2ccccc2)N2CCN(CCc3ccccc3)CCC2=O)cc1,36.8 µM,46.7 µM
COC(=O)COc1ccc(-c2nn(C)c(=O)c3ccccc23)cc1,1.77 µM,27.5 µM
O=c1cc(CCl)nc(Cc2c(Cl)cccc2Cl)[nH]1,0.51 µM,68.7 µM
C/C(=N\NC(=O)c1cc2c(s1)CCC(C)C2)c1ccncc1 (stereo not drawn),–,> 100 µM
COc1cccc(COC(=O)c2ccc3c(=O)n4c(nc3c2)CCC4)c1OC,21.1 µM,50.6 µM
Cc1ccc(-n2c(C)cc(/C=N/NC(N)=S)c2C)cc1,12.7 µM,24.6 µM
Cc1cc(N/N=C/c2ccccc2[N+](=O)[O-])nc(-n2nc(C)cc2C)n1,0.92 µM,4.72 µM
Cc1cc(C2=NNC(=NC3CCCCC3)SC2)c(C)n1-c1c(C)n(C)n(-c2ccccc2)c1=O,88.2 µM,> 100 µM
C/C(=N\NC(=O)c1nnn(-c2nonc2N)c1CN(C)c1ccccc1)c1ccccn1,8.5 µM,15.7 µM
CCOc1ccc(Nc2cc(C)nc(-n3nc(C)cc3C)n2)cc1,0.7 µM,4.77 µM
CCOC(=O)Cc1csc(NC(=O)c2c(O)c3c(n(CC(C)C)c2=O)CCCC3)n1,5.19 µM,72 µM
Cc1ccccc1Cn1cc(NC(=O)c2noc(C(C)C)c2[N+](=O)[O-])cn1,5.11 µM,8.72 µM
CC1CCc2c(C(=O)Nc3nccs3)csc2C1 (stereo not drawn),7.27 µM,22.8 µM
Cc1ccnc(N2CCC(C(=O)Nc3cccc(C(F)(F)F)c3)CC2)n1,47.5 µM,> 100 µM

SMILES,IC50,IC90
CN(C(=O)COC(=O)/C=C/c1ccc(Cl)c(Cl)c1)c1c(N)n(Cc2ccccc2)c(=O)[nH]c1=O,–,> 100 µM
Cc1ccc(-n2[nH]c(C)c(C=Nc3ccc(S(=O)(=O)Nc4nccs4)cc3)c2=O)c(C)c1,5.73 µM,17 µM
CCOC(=O)c1ccc(N=C2C(=S)N(c3ccc(C(=O)OCC)cc3)C(=N)N2/N=C/c2ccccc2)cc1,68.9 µM,> 100 µM
O=S(=O)(c1ccc(Cl)cc1)c1snnc1-c1ccccc1,6.27 µM,51.8 µM
CN(C)CCCN(C(=O)c1ccc([N+](=O)[O-])s1)c1nc2cc3c(cc2s1)OCCO3,30.7 µM,45.5 µM
CCOC(=O)CSC1=C(C#N)C(c2ccc(C)cc2)C2=C(CCCC2=O)N1 (stereo not drawn),43.9 µM,> 100 µM
Cc1noc(C)c1COc1ccc(C(=O)OCC(=O)NC23CC4CC(CC(C4)C2)C3)cc1,8.33 µM,24.5 µM
O=C(CCl)c1ccc2c(c1)CCN2C(=O)C1CCCCC1,16.7 µM,> 100 µM
O=C(COc1cc(O)c2c(=O)c3ccccc3oc2c1)OCc1ccccc1,–,> 100 µM
COC(=O)CSc1nnc([C@H](CC(C)C)NC(=O)OC(C)(C)C)o1,14.5 µM,32.9 µM
Cc1cc(C)cc(NC(=O)c2ccc(Cn3nc(C)c(Cl)c3C)o2)c1,30.8 µM,41.9 µM
Cc1cc(C)c(CSc2ncc(-c3ccc([N+](=O)[O-])cc3)[nH]2)c(C)c1,42.5 µM,62.8 µM
O=C(N/N=C\C=C\c1ccc([N+](=O)[O-])o1)c1cccs1,0.59 µM,0.92 µM
C/C(=N\NC(=S)NCC(C)(C)C)c1cc(F)cc(F)c1O,1.22 µM,8.86 µM
COc1cnc(-c2ccccn2)nc1Oc1ccc(Cl)c2ccccc12,< 0.2 µM,2.86 µM
CNC(CC(=O)c1ccc([N+](=O)[O-])cc1)C(Cl)(Cl)Cl (stereo not drawn),2.26 µM,5.81 µM
CCN(CC)S(=O)(=O)c1ccc(/C=C/C(=O)OCC#N)cc1,6.59 µM,39.6 µM
Cc1ccc(NC(=O)c2sccc2-n2cccc2)c(C)c1,28.2 µM,82.9 µM
Cc1nnc(SCc2ccccc2Cl)n(N)c1=O,0.38 µM,5.3 µM
O=S1(=O)N(CCN2CC=C(c3c[nH]c4cc(F)ccc34)CC2)c2cccc3c2N1CCC3,11.1 µM,11.7 µM
CC(C)Oc1ccc(C(=O)N/N=C/c2ccc(-c3ccc(S(=O)(=O)Nc4ncccn4)cc3)o2)cc1,19.2 µM,37.4 µM
